From article PMC9115112, “A2B adenosine receptor antagonists rescue lymphocyte activity in adenosine-producing patient-derived cancer models” (Journal for Immunotherapy of Cancer, 2022)

What was measured:
[1] = system: autologous TILs and patient-derived sarcoma spheroids; test: Spheroid infiltration by autologous TILs (real-time imaging and flow cytometry); format: cell-based, human; details: antagonist 12 µM, 3 days, n=8 donors, not statistically significant
Description: Spheroids were prepared using patient-derived sarcoma cell lines. 1×10^4 cells were seeded per well in 96-well ultra-low attachment plate with DMEM-F12 media containing 20% FBS and 1% PS for 5 days. 3×10^4 CSFE-labeled autologous expanded TILs, at Effector:target ratio of 3:1, were added to the spheroid at day five with A2BAR antagonism treatment at 12 µM. After 3 days, spheroid was removed and split into two groups—IN and OUT. […] Spheroids were washed with PBS at least two times. GentleMACS tumor dissociation kit (Miltenyi Biotec) was used to digest the spheroids for FC analysis.
Brightfield and phase contrast images under 4X objective were acquired every 6 hours on IncuCyte S3 system (Essen BioScience). For breast cancer patient-derived spheroid culture, 1×10^4 cells per well were seeded with A2BAR antagonist at 12 µM treatment for 6 days real time imaging. For spheroid infiltration, after the addition of CSFE-labeled autologous expanded TILs and treatment with A2BAR antagonist at 12 µM, green fluorescence images were acquired for 3 days. All spheroid invasion analysis was performed using top hat segmentation with IncuCyte software.
Cell surface was stained with mouse monoclonal antihuman antibodies against CD3, CD4, CD8, CD45RA, CD56 and CD19 listed in online supplemental table 1. Cell surface antibodies and live/dead (L/D) marker were incubated with samples at 4°C for 20 min after washing two times with flow cytometry buffer containing 5% FBS in PBS. For spheroid infiltrated TIL phenotyping, digested IN and OUT spheroids were stained with cell surface marker and analyzed on NovoCyte (ACEA Bioscience) with the use of FlowJo software (Tree Star) by gating single cell based on forward and side scatters. A representative gating strategy for CD8 naïve T cells is shown in online supplemental figure 3A. Compensated flow cytometry standard (FCS) files with only live cells were concatenated for downstream tSNE analysis using the ‘cytofkit’ R package (https://github.com/JinmiaoChenLab/cytofkit).
Figure 6 Infiltration of TILs into autologous patient-derived sarcoma spheroids after A2BAR antagonist treatment. (A) Representative real-time imaging of spheroid TIL infiltration over 3 days under 4× objective. Green areas demarcate CFSE-labeled TILs infiltrated into the red boundary tumor spheroid. (B) Relative TIL infiltration into autologous spheroids (n=8 donors) measured by flow cytometer. Antagonist 12 µM was added with CSFE-labeled TILs after spheroid formation on day five. (C) Representative flow cytometry plot of CFSE positive TILs in CD73+ tumor spheroid. (D) tSNE analysis and (E) annotated pie chart of TILs within (IN) and outside of (OUT) the spheroids without treatment (n=8 donors, indicated within the pie chart). Wilcoxon Rank Sum test was performed to compare the various IN vs OUT adhesion markers. Expression of (F) CD3 T cells, (G) CD49a+ CD103+ among CD8 T cells and (H) CD69 MFI among CD4 T cells IN and OUT of the spheroids without treatment (n=8 donors). (I) Relative CD8/CD4 TIL ratio IN the spheroids. Differential expression of relative (J–L). CD49a+ CD103+ cells IN the spheroids (n=8 donors) of CD3, CD8, and CD4 TILs. Antagonist 12 µM was added for J–L. Outlier is presented as diamond shape and defined by Tukey’s rule, which is not included in statistical analysis. Box plots with minimum, first quartile, median, third quartile, and maximum are presented. Unpaired and non-parametric statistical analysis—Mann-Whitney test was performed against untreated control with *p<0.05, **p<0.01, ***p<0.001, and ****p<0.0001. CFSE, carboxyfluorescein succinimidyl ester; TIL, tumor infiltrating lymphocyte; tSNE, T-distributed stochastic neighboring embedding. TEXT PRINTED IN THE PICTURE: (C) ISAM-R56A: TILs 13.0 DOUBTS OF THE COPYIST ABOUT THIS PICTURE: Panel C, ISAM-R56A, TILs: the print is small, 13.0 could be 13.8 or 13.6 / Panel C also prints a gate label 'TILs 3.17' for the Untreated control. […]

[2] = system: healthy donor T cells (PBMCs) and NK cells; test: CFSE proliferation assay with exogenous adenosine; format: cell-based, human; details: exogenous adenosine 0.1 mM, antagonist 12 µM, 3 days (T) and 6 days (NK)
Description: Freshly isolated PBMCs and NK cells were stained with 5 µM FITC-conjugated carboxyfluorescein succinimidyl ester (CFSE, BioLegend) in phosphate-buffered saline (PBS) (Life Technologies) at room temperature for 5 min. CSFE stained cells were washed with flow cytometer buffer three times. CSFE-labeled healthy PBMCs and NK cells were cultured in 96-well plates with X-VIVO20% and 1% PS for 3 and 6 days, respectively. Healthy PBMCs were incubated with Human T-activator CD3/CD28 beads at 1:4 ratio (Thermo Fisher Scientific) and IL-2 (Novartis) at 100 IU/mL. Healthy donor NK cells were incubated with 1000 IU/mL IL-2 only. 2×10^5 PBMCs and 5×10^4 NK cells were counted for treatment with ADO (Sigma-Aldrich) and 12 μM of A2BAR antagonist at the same day.
Figure 3 Rescue of lymphocyte proliferation by of A2BAR antagonism. Relative proliferation of: (A) CD45RA- CD4 T cells, (B) CD45RA+ CD4 T cells, (C) CD45RA- CD8 T cells, (D) CD45RA+ CD8 T cells, and (E) NK cells, after incubation with exogenous adenosine 0.1 mM and A2BAR antagonist 12 µM for 3 (A–D) and 6 (E) days. (n=10 healthy donors) CD45RA expression differentiates naïve and effector T cells from central and effector memory T cells. Box plots with minimum, first quartile, median, third quartile, and maximum are presented. Unpaired and non-parametric statistical analysis—Mann-Whitney test was performed against untreated control with *p<0.05, **p<0.01, ***p<0.001, and ****p<0.0001. (F–J) Representative CFSE histogram on the corresponding lymphocyte subset. CFSE, carboxyfluorescein succinimidyl ester.

[3] = system: CD4 and CD8 T cells (healthy donor PBMCs); test: IFNy and perforin cytokine production assay, with CD69 expression (flow cytometry); format: cell-based, human; details: antagonist 12 µM, exogenous adenosine
Description: Similar experimental setup was performed as the extracellular ADO uptake assay. Cells were harvested after 2 days of CD3/CD28 bead stimulation before treatment with PMA/ionomycin (Sigma Aldrich) and golgi-inhibitors (BD biosciences). After 3 hours of subsequent incubation, intracellular staining was performed for IFNy and perforin (online supplemental table 1).
(§1) Figure 4 Rescue of lymphocyte proinflammatory cytokine production IFNy and perforin by A2BAR antagonism. (A,B) Inhibition of extracellular adenosine uptake via phosphorylated-AMP activated protein kinase (pAMPK) staining (n=7 healthy donors). Production of proinflammatory cytokines—(C,D) IFNy and (E) perforin in CD4 (n=5 healthy donors) and CD8 (n=6 healthy donors) T cells. Expression of CD69 adhesion molecule in (F). CD4 (n=7 healthy donors) and (G) CD8 (n=4 healthy donors) T cells. A2BAR antagonist 12 µM was added. Outlier is presented as diamond shape and defined by Tukey’s rule, which is not included in statistical analysis. Box plots with minimum, first quartile, median, third quartile, and maximum are presented. Normalized fold change is based on percent values compared with untreated controls. Unpaired and non-parametric statistical analysis—Mann-Whitney test was performed against untreated control with *p<0.05, **p<0.01, ***p<0.001, and ****p<0.0001.

[4] = biological target: T1, hA2B (A2BAR) (Homo sapiens, UniProt P29275); test: cAMP assay, NECA-stimulated, HEK-293 cells with transfected A2BAR; format: cell-based; details: n=3, read-out: Kb hA2B (cAMP production)
T1 construct: expressed in transfected cells; host or cells: HEK-293
T1 sequence (P29275 1-332): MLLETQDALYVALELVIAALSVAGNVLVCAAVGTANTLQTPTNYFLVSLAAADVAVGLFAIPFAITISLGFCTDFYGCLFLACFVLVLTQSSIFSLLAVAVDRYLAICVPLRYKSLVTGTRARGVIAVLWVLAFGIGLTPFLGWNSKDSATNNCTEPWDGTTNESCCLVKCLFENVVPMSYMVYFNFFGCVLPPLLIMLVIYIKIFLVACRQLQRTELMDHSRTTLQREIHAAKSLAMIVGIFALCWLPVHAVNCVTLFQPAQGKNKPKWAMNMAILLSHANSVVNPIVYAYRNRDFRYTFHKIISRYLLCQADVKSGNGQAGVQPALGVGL
Description: Assays were performed in transfected A2BAR using a cyclic AMP (cAMP) enzyme immunoassay kit (Amersham Biosciences) following previously described protocols.[28 30] HEK-293 cells were seeded (10,000 cells/well) in 96-well culture plates and incubated at 37°C in an atmosphere with 5% CO2 in Eagle’s Medium Nutrient Mixture F-12 (EMEM F-12), containing 10% fetal calf serum (FCS) and 1% L-Glutamine. Cells were washed three times with 200 µL assay medium (EMEM-F12 and 25 mM HEPES pH=7.4) and pre-incubated with assay medium containing 30 µM rolipram and test compounds at 37°C for 15 min. Ten µM NECA was incubated for 15 min at 37°C (total incubation time 30 min). Reaction was stopped with lysis buffer supplied in the kit and the enzyme immunoassay was carried out for detection of intracellular cAMP at 450 nm in an Ultra Evolution detector (Tecan). The dose-response curve of NECA-elicited cAMP formation was used to determine the initial choice of A2BAR antagonist concentration (online supplemental figure 2).

[5] = system: healthy donor T cells in MPNST patient-derived sarcoma spheroid; test: Proliferation assay with CD73-expressing patient-derived sarcoma (MPNST) spheroid; format: cell-based, human; details: antagonist 12 µM, 3 days, endogenous adenosine, n=5 healthy donors
Description: A malignant peripheral nerve sheath tumor (MPNST) patient-derived sarcoma cell line was used to grow spheroid by seeding 1×10^4 cells per well in a 96-well ultra-low attachment plate (Thermo Fisher Scientific) with DMEM-F12 media containing 20% FBS and 1% PS for 5 days. 1×10^5 CSFE-labeled healthy PBMCs, ratio of 10:1, were added to the CD73 expressing, adenosine-producing spheroid at day five. Similar to the proliferation assay with exogenous ADO, CD3/CD28 beads at 1:4 ratio and IL-2 at 100 IU/mL were added. A2BAR antagonism treatment at 12 μM was added at the same day.
Figure 5 Rescue of lymphocyte proliferation in sarcoma spheroids by A2BAR antagonism. Relative proliferation of: (A) CD45RA- CD4 T cells, (B) CD45RA+CD4 T cells, (C) CD45RA- CD8 T cells and (D) CD45RA+ CD8 T cells after antagonist 12 µM treatment for 3 days in MPNST patient-derived sarcoma spheroid. (n=5 healthy donors) Box plots with minimum, first quartile, median, third quartile, and maximum are presented. Unpaired and non-parametric statistical analysis—Mann-Whitney test was performed against untreated control with *p<0.05, **p<0.01, ***p<0.001, and ****p<0.0001. (E) Representative CSFE dilution of CD45RA+ CD8 T cells. CD45RA expression differentiates naïve and effector T cells from central and effector memory T cells. MPNST, malignant peripheral nerve sheath tumors; UPS, undifferentiated pleomorphic sarcoma.

[6] = system: pAMPK in CD4 and CD8 T cells; test: Extracellular ADO uptake assay via pAMPK staining; format: cell-based, human; details: antagonist 12 µM, 50 µM exogenous adenosine, n=7 healthy donors
Description: Experimental setup was adopted from a previous study whereby AR antagonist was added to pretreat cells before exogenous adenosine treatment for intracellular and cytokine staining.[37] In brief, PBMCs were treated with 12 µM of A2BAR antagonists for 90 min before the addition of 50 µM of adenosine for 2 hours. Cells were harvested after 3 hours of CD3/CD28 bead stimulation before intracellular staining with phosphor-AMPK (Thr183, Thr172) rabbit primary antibody (Thermo Fisher Scientific) and antirabbit secondary antibody (BD biosciences).
as §1

Kb [4]	Compound	Median increased TIL infiltration vs untreated [1]	Rescue of lymphocyte (T and NK cell) proliferation [2]	IFNy production by T cells on adenosine suppression (subset not given) [3]	Perforin production by CD8 T cells on adenosine suppression [3]	Rescue of naïve and effector (CD45RA+) CD8 T cell proliferation in adenosine-producing sarcoma spheroids [5]	pAMPK (extracellular ADO uptake) in CD4 T cells [6]
–	Cc1cc(-c2nnc(N)nc2-c2ccc(F)cc2)cc(Cl)n1 [AZD-4635, reference compound]	20%	did not restore the proliferation	–	–	–	–
4.72 nM	CC1=C(C(=O)OC(C)C)C(c2ccco2)NC(=S)N1 (stereo not shown) [SY1AF-30]	–	None of the other A2BAR antagonists (SY1AF–30, SY1AF–80 and SY1KO–24) had any measurable impact	significantly improved	significantly improved	significantly rescued	–
25.2 nM	CCOC(=O)C1=C(C)NC(=O)NC1c1ccsc1 (stereo not shown) [SY1AF-80]	–	None of the other A2BAR antagonists (SY1AF–30, SY1AF–80 and SY1KO–24) had any measurable impact	–	–	significantly rescued	significantly inhibited ADO uptake
116 nM	CC1=C(C(=O)OC(C)C)C(c2ccco2)NC(=NC#N)N1 (stereo not shown) [SY1KO-24]	–	None of the other A2BAR antagonists (SY1AF–30, SY1AF–80 and SY1KO–24) had any measurable impact	–	–	–	–
